Assays:
[1] = target: T1, JAK3 (Homo sapiens, UniProt P52333); assay: Inhibition of a panel of kinases, in vitro HotSpot kinase assay: JAK3; format: biochemical; settings: E compounds, Table 17; read-out: IC50 JAK3
T1 sequence (P52333 1-1124): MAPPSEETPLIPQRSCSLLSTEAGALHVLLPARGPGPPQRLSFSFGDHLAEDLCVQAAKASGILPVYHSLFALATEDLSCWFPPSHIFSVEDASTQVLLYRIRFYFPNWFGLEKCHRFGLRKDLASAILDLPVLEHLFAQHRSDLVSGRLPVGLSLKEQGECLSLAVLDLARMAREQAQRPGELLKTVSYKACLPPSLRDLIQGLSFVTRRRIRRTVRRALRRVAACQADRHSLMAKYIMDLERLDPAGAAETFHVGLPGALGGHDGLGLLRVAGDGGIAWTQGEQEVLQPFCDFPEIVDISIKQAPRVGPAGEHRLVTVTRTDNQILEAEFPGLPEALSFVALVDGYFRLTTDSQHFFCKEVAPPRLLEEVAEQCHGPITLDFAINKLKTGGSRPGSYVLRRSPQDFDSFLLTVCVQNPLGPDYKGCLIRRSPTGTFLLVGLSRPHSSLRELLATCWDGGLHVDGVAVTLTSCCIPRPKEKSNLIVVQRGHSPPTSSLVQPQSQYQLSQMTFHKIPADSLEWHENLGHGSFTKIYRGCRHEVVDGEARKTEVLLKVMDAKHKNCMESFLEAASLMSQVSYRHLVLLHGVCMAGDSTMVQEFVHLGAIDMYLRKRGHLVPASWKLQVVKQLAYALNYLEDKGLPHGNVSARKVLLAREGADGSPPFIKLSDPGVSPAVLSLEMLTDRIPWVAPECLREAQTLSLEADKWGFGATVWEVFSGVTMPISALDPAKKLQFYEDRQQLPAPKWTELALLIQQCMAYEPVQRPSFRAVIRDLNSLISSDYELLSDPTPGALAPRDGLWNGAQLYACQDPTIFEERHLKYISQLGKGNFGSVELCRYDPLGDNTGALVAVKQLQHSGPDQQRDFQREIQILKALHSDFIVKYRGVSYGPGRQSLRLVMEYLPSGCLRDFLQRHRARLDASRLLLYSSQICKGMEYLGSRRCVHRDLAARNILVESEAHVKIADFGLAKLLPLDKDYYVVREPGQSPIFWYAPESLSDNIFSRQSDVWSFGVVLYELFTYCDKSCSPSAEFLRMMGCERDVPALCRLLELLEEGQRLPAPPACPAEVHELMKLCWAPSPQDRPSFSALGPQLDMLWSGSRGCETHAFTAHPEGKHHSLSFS

[2] = target: T2, ITK (Homo sapiens, UniProt Q08881); assay: Inhibition of a panel of kinases, in vitro HotSpot kinase assay: ITK; format: biochemical; settings: E compounds, Table 17
T2 sequence (Q08881 1-620): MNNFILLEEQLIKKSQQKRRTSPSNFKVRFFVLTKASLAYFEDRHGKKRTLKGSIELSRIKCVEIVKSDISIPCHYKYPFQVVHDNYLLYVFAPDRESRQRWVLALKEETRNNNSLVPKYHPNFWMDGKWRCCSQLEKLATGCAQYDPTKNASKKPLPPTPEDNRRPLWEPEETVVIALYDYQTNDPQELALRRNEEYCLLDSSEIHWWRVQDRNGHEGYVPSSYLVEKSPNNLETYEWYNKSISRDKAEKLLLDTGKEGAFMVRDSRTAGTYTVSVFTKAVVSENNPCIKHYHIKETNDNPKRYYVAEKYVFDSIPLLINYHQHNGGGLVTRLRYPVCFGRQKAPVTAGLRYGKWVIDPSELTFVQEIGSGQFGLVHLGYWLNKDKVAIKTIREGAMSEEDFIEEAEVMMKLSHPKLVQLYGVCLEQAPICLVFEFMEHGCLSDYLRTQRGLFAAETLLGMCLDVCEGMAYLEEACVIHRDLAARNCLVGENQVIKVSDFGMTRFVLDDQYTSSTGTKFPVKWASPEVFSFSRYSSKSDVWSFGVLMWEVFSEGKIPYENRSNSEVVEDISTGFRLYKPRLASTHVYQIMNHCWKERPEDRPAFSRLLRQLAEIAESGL
Experimental: The degree of inhibition of a panel of kinases is determined using the in vitro HotSpot kinase assay (purified enzymes, ^33P-ATP, an appropriate substrate and 1 μM ATP).

Compound	IC50 [1]	IC50 [2]
C=CC(=O)N1CC[C@@H](N(C)c2cnc(C(N)=O)c(Nc3ccc(C4(C)CCN(C5CC5)CC4)cc3)n2)C1 [Example E-104, (R)-5-((1-acryloylpyrrolidin-3-yl)(methyl)amino)-3-(4-(1-cyclopropyl-4-methylpiperidin-4-yl)phenylammo)pyrazine-2-carboxamide]	< 0.01 µM	≤ 0.01 µM
C=CC(=O)N1CC[C@@H](N(C)c2cnc(C(N)=O)c(Nc3ccc(C4(C)CCN(C5CCCC5)CC4)cc3)n2)C1 [Example E-106, (R)-5-((1-acryloylpyrrolidin-3-yl)(methyl)amino)-3-(4-(1-cyclopentyl-4-methylpiperidin-4-yl)phenylamino)pyrazine-2-carboxamide]	< 0.01 µM	≤ 0.01 µM
C=CC(=O)N1CCC[C@@H](Nc2cnc(C(N)=O)c(Nc3ccc(C4CCN(C5CCCC5)CC4)cc3)n2)C1 [Example E-108, (R)-5-(1-acryloylpiperidin-3-ylamino)-3-(4-(1-cyclopentylpiperidin-4-yl)phenylamino)pyrazine-2-carboxamide]	< 0.01 µM	≤ 0.01 µM

Reference: patent US20210070748A1, “INHIBITORS OF BRUTONS TYROSINE KINASE” (Pharmacyclics LLC, priority 2015, published 2021)
